Consider two molecules from patent US20180193287A1, “HOPS-BASED SUBSTANCE AND USE OF THE SUBSTANCE” (John I. Haas, Inc., priority 2015, published 2018).

This assay concerns acute liver damage in mice as a result of alcohol. In words: acute liver damage in mice as a result of alcohol, liver tissue triglyceride (FIG. 3). Conditions: alcohol by gavage 6 g/kg body weight, XN 5 mg/kg and/or IAA 25 mg/kg body weight applied simultaneously, liver removed after 12 hours, P<0.05. Type of assay: in vivo. As to the method: A model used was acute liver damage in mice as a result of alcohol. Alcohol was applied to the mice by gavage (6 g/kg body weight). Furthermore, xanthohumol (XN; 5 mg/kg body weight), iso-alpha-acid (IAA; 25 mg/kg body weight) and a combination of xanthohumol (5 mg/kg body weight) and iso-alpha-acid (25 mg/kg body weight) were simultaneously applied in the experimental groups. After 12 hours the animals were sacrificed, the liver tissue was removed, and the triglyceride (TG) […] therein was determined. A control group of untreated mice (no-Alc) was also tested. In the “alcohol group”, a significant increase in TG can be seen in comparison with the “non-alcohol group”.
Again, the significance level is P<0.05. CTR stands for a group of alcohol-treated mice without addition of xanthohumol, iso-alpha-acid or a combination of xanthohumol and iso-alpha-acid.

Take `CC(C)=CCC(=O)[C@@]1(O)C(O)=C(C(=O)CC(C)C)C(=O)C1CC=C(C)C` (stereo partly drawn) [iso-alpha-acid]: the “triglyceride (TG) content of liver tissue versus alcohol group” value was “does not differ significantly”. Under `COc1cc(O)c(CC=C(C)C)c(O)c1C(=O)/C=C/c1ccc(O)cc1` [xanthohumol] stands “does not differ significantly”.
